According to ChEMBL document CHEMBL1154010, “Aziridine alkaloids as potential therapeutic agents” (Eur J Med Chem, 2009):
In brackets after ≈: the same amount, converted by molar mass.

Tests used:
[1] = tested on: Mus musculus; experiment: Toxicity in ip dosed ddY mouse bearing mouse S180 cells; type: organism-based, CCRF S-180; conditions: in vivo
[2] = tested on: CCRF S-180; experiment: Antitumor activity against mouse S180 cells implanted in ip dosed ddY mouse assessed as tumor volume after 7 days; type: functional
[3] = tested on: CCRF S-180; experiment: Antitumor activity against mouse S180 cells xenografted in rat; type: functional
[4] = Antitumor activity against mouse EAC cells xenografted in rat; type: functional, Ehrlich
[5] = tested on: HCT-116; experiment: Cytotoxicity against human HCT116 cells; type: functional, cell-based
[6] = tested on: LoVo; experiment: Cytotoxicity against human LoVo cells; type: functional, cell-based
[7] = Antitumor activity against mouse mammary cancer cell implanted in C3H/An mouse assessed as inhibition of tumor growth at 0.5 mg/day for 14 days; type: functional, Cancer cell lines
[8] = tested on: KB; experiment: Cytotoxicity against human KB cells; type: functional, cell-based
[9] = tested on: L1210; experiment: Cytotoxicity against mouse L1210 cells; type: functional, cell-based
[10] = tested on: HL-60; experiment: Cytotoxicity against human HL60 cells; type: functional, cell-based

Compound `CO[C@@]12[C@H](COC(N)=O)C3=C(C(=O)C(C)=C(N)C3=O)N1C[C@H]1[C@@H]2N1C` (stereo partly specified) [PORFIROMYCIN] has an LD50 [1] of 57 µg/mL and an ED50 [2] of 22 µg/mL (≈ 63.2 µM).

In the case of `CC1(C)CC(C(=O)ONP(=O)(N2CC2)N2CC2)CC(C)(C)N1O`, the Activity [3] is reported as 93% and the Activity [4] is reported as 90%.

Work on `CC(=O)O[C@H]1C(=O)[C@@]2(C)C([C@H](OC(=O)c3ccccc3)[C@]3(O)C[C@H](OC(=O)[C@@H](O)[C@H](NC(=O)c4ccccc4)c4ccccc4)C(C)=C1C3(C)C)[C@]1(OC(=O)N3CC3)CO[C@@H]1C[C@@H]2O` (stereo partly specified) yielded an IC50 [5] of 15.6 nM.

For `CC(=O)[C@]1(O)Cc2c(O)c3c(c(O)c2[C@@H](OC2C[C@H](N4CC4)[C@H](OS(C)(=O)=O)[C@H](C)O2)C1)C(=O)c1ccccc1C3=O` (stereo partly specified), the IC50 [6] was 0.0027 µg/mL (≈ 0.00449 µM).

With `CC(=O)[C@H]1C(N2CC2)C[C@H]2[C@@H]3CCC4=CC(=O)CC[C@]4(C)[C@H]3CC[C@]12C` (stereo partly specified) the “inhibition (INH)” value [7] was 55%.

Work on `COC1=C(C)C(=O)C2=C(C1=O)[C@@H](COC(N)=O)[C@@]1(OC)[C@H]3N[C@H]3CN21` [MITOMYCIN A] yielded an LD50 [1] of 2.1 µg/mL and an ED50 [2] of 1.1 µg/mL (≈ 3.15 µM).

With `COc1ccc2c(c1)CC[C@@H]1[C@@H]2CC[C@]2(C)C(=O)C(N3CC3)C[C@@H]12` (stereo partly specified) the “inhibition (INH)” value [7] was 17%.

With `C=C1C2=C(C(=O)C(C)=C(OC)C2=O)N2C[C@H]3[C@H](N3C)[C@]12O` (stereo partly specified) [MITOMYCIN H] the LD50 [1] was 12 µg/mL and the ED50 [2] was 6.8 µg/mL (≈ 23.6 µM).

With `COC(=O)[C@@H]1N=C1/C=C\CCCCCCCCC/C=C(/Cl)Br` the IC50 [5] was 13600 nM.

Compound `CO[C@@]12[C@H](COC(N)=O)C3=C(C(=O)C(C)=C(N)C3=O)N1C[C@@H]1N[C@@H]12` [MITOMYCIN] has an ED50 [2] of 4.4 µg/mL (≈ 13.2 µM).

Work on `COC(=O)[C@@H]1N=C1/C=C/CCCCCCCCC/C=C(/Cl)Br` yielded an IC50 [5] of 15200 nM.

In the case of `CC(=O)O[C@H]1CC[C@@]2(C)C(=CC[C@@H]3[C@@H]2CC[C@]2(C)C(=O)C(CN4CC4)C[C@@H]32)C1` (stereo partly specified), the “inhibition (INH)” value [7] is reported as 32%.

In the case of `CCCCCCCCCCCCC/C=C/C1=N[C@@H]1C(=O)OC`, the IC50 [5] is reported as 18200 nM.

With `CC1(C)CC(CCC(=O)ONP(=O)(N2CC2(C)C)N2CC2(C)C)CC(C)(C)N1O` (stereo unspecified) the Activity [3] was 93% and the Activity [4] was 90%.

For `C/C(=C\c1csc(C)n1)[C@@H]1C[C@H]2[C@@H](CCC[C@H](C)[C@H](O)[C@@H](C)C(=O)C(C)(C)[C@@H](O)CC(=O)O1)N2CCO` (stereo partly specified), the IC50 [8] was 4.3 nM.

`NCCCNCCCCN1CC1` gave an IC50 [9] of 310 nM and an IC50 [10] of 300 nM.

For `C=C1C2=C(C(=O)C(C)=C(N)C2=O)N2C[C@H]3[C@H](N3C)[C@]12OC` (stereo partly specified) [MITOMYCIN K], the LD50 [1] was 22 µg/mL and the ED50 [2] was 35 µg/mL (≈ 122 µM).

With `COC(=O)[C@H]1N=C1/C=C/CCCCCCCCCC=C(Cl)Cl` the IC50 [5] was 24800 nM.

Work on `CC(=O)O[C@H]1C(=O)[C@@]2(C)C([C@H](OC(=O)c3ccccc3)[C@]3(O)C[C@H](OC(=O)[C@@H](O)[C@H](CC(=O)c4ccccc4)c4ccco4)C(C)=C1C3(C)C)[C@]1(OC(=O)N3CC3)CO[C@@H]1C[C@@H]2O` (stereo partly specified) yielded an IC50 [5] of 6.9 nM.
